According to PubChem BioAssay (NCI):
Values joined by “and” are separate entries in the source; they are usually repeats but may differ in a detail not shown here. Equal entries are not always repeated.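 These data come from cells grown in 96-well plates and exposed to compound for 48 hours at five concentrations. Abbreviation: GI50, concentration required for 50% inhibition of growth. TGI is the concentration that stops growth completely.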

Tests used:
Assay in all cases: NCI tumour cell line growth inhibition, 48 h
CCRF-CEM leukemia = test system: CCRF-CEM leukemia
MCF7 breast = test system: MCF7 breast
SNB-78 CNS = test system: SNB-78 CNS
OVCAR-4 ovarian = test system: OVCAR-4 ovarian
SK-MEL-2 melanoma = test system: SK-MEL-2 melanoma
U251 CNS = test system: U251 CNS
NCI-H226 lung = test system: NCI-H226 lung
SN12K1 renal = test system: SN12K1 renal
TK-10 renal = test system: TK-10 renal
HS 578T breast = test system: HS 578T breast

With `COc1ccc2cc1Oc1ccc(cc1)C[C@H]1c3cc(c(OC)cc3CCN1C)Oc1c(O)c(OC)cc3c1[C@H](C2)N(C)CC3` as the molecule, how does the TGI (CCRF-CEM leukemia) read?
Its TGI is 83.8 µM.

What about the TGI (MCF7 breast) of the same molecule?
The TGI was 51.5 µM.

And the TGI (SNB-78 CNS)?
The TGI was 117 µM.

What about the TGI (OVCAR-4 ovarian) of the same molecule?
Its TGI is 58.1 µM.

What about the TGI (SK-MEL-2 melanoma) of the same molecule?
Its TGI is 48.5 µM.

And the TGI (U251 CNS)?
Its TGI is 60.3 µM.

And the TGI (NCI-H226 lung)?
The TGI was 63 µM.

And the TGI (SN12K1 renal)?
Its TGI is 39.2 µM.

Which TGI (CCRF-CEM leukemia) does the source give for `COC(=O)[C@@H](O)[C@](O)(CCC(C)C)C(=O)O[C@@H]1C(OC)=C[C@]23CCCN2CCc2cc4c(cc2[C@H]13)OCO4` here?
Its TGI is over 27 µM.

What about the TGI (MCF7 breast) of the same molecule?
The TGI was 2.18 µM.

What about the TGI (SNB-78 CNS) of the same molecule?
The TGI was 10.9 µM.

And the TGI (OVCAR-4 ovarian)?
Its TGI is 5.77 µM.

And the TGI (SK-MEL-2 melanoma)?
Its TGI is 9.15 µM.

And the TGI (U251 CNS)?
The TGI was 6.05 µM.

And the TGI (NCI-H226 lung)?
The TGI was 6.31 µM.

And the TGI (SN12K1 renal)?
The TGI was 5.89 µM.

Which results are given for `CC(=O)c1c2c(c3ccccc3c1O)O[C@@H]1OCC[C@H]21`?
TGI (CCRF-CEM leukemia): > 100 µM; TGI (MCF7 breast): > 100 µM; TGI (TK-10 renal): > 100 µM; TGI (OVCAR-4 ovarian): > 100 µM; TGI (HS 578T breast): > 100 µM; TGI (SK-MEL-2 melanoma): > 100 µM; TGI (U251 CNS): > 100 µM; TGI (NCI-H226 lung): > 100 µM

`Nn1c(-c2ccccc2)n[nH]c1=O` was tested. Which TGI (CCRF-CEM leukemia) did it give?
The TGI was over 100 µM.

What about the TGI (MCF7 breast) of the same molecule?
Its TGI is over 100 µM.

What about the TGI (TK-10 renal) of the same molecule?
The TGI was over 100 µM.

And the TGI (OVCAR-4 ovarian)?
Its TGI is over 100 µM.

And the TGI (HS 578T breast)?
Its TGI is over 100 µM.

And the TGI (SK-MEL-2 melanoma)?
Its TGI is over 100 µM.

And the TGI (U251 CNS)?
The TGI was over 100 µM.

And the TGI (NCI-H226 lung)?
The TGI was over 100 µM.

For `Cc1ccnc(NS(=O)(=O)c2ccc(N=[N+]=[N-])cc2)n1`, which TGI (CCRF-CEM leukemia) is on record?
The TGI was over 49.7 µM.

What about the TGI (MCF7 breast) of the same molecule?
The TGI was over 100 µM.

And the TGI (TK-10 renal)?
Its TGI is over 100 µM.

What about the TGI (OVCAR-4 ovarian) of the same molecule?
The TGI was over 100 µM.

What about the TGI (HS 578T breast) of the same molecule?
Its TGI is over 100 µM.

What about the TGI (SK-MEL-2 melanoma) of the same molecule?
The TGI was over 100 µM.

What about the TGI (U251 CNS) of the same molecule?
Its TGI is over 100 µM.

What about the TGI (NCI-H226 lung) of the same molecule?
Its TGI is over 100 µM.

What does the source list for `CCCCCC1=CC(=O)C1(Cl)Cl`?
TGI (CCRF-CEM leukemia): 6.15 µM; TGI (MCF7 breast): 31.6 µM; TGI (TK-10 renal): 20.8 µM; TGI (OVCAR-4 ovarian): 38.1 µM; TGI (HS 578T breast): > 81.3 µM; TGI (SK-MEL-2 melanoma): 47.7 µM; TGI (U251 CNS): 25.1 µM; TGI (NCI-H226 lung): 41.5 µM

What does the source list for `CC1(C(=O)O)CCC2(C)CCC3(C)C(=CC(=O)C4C5(C)CCC(O)C(C)(C)C5CCC43C)C2C1` (configuration not stated)?
TGI (CCRF-CEM leukemia): 95.9 µM; TGI (MCF7 breast): > 100 µM; TGI (TK-10 renal): > 100 µM; TGI (OVCAR-4 ovarian): > 100 µM; TGI (HS 578T breast): 65.7 µM; TGI (SK-MEL-2 melanoma): 92.4 µM; TGI (U251 CNS): > 100 µM; TGI (NCI-H226 lung): > 100 µM

Which results are given for `Oc1ccccc1CNCc1nc2ccccc2[nH]1`?
TGI (CCRF-CEM leukemia): > 100 µM; TGI (MCF7 breast): > 100 µM; TGI (TK-10 renal): > 100 µM; TGI (OVCAR-4 ovarian): > 100 µM; TGI (HS 578T breast): > 100 µM; TGI (SK-MEL-2 melanoma): > 100 µM; TGI (U251 CNS): > 100 µM; TGI (NCI-H226 lung): 87.4 µM

Which TGI (CCRF-CEM leukemia) does the source give for `COC(=O)C1=C(C(=O)OC)SC(=C2SCSC3=C2SC(C(=O)OC)=C(C(=O)OC)C32SC3=C(CCCC3)S2)S1` here?
The TGI was over 100 µM.

And the TGI (MCF7 breast)?
The TGI was over 100 µM.

What about the TGI (TK-10 renal) of the same molecule?
The TGI was over 100 µM.

And the TGI (OVCAR-4 ovarian)?
Its TGI is over 100 µM.

And the TGI (HS 578T breast)?
Its TGI is over 100 µM.

And the TGI (SK-MEL-2 melanoma)?
The TGI was over 100 µM.

What about the TGI (U251 CNS) of the same molecule?
The TGI was over 100 µM.

And the TGI (NCI-H226 lung)?
The TGI was over 100 µM.

Which results are given for `CC(=O)N1C(C(=O)NC2CCCCC2)CSC1c1ccccc1` (configuration not stated)?
TGI (CCRF-CEM leukemia): > 100 µM; TGI (MCF7 breast): > 100 µM; TGI (TK-10 renal): > 100 µM; TGI (OVCAR-4 ovarian): > 100 µM; TGI (HS 578T breast): > 100 µM; TGI (SK-MEL-2 melanoma): > 100 µM; TGI (U251 CNS): > 100 µM; TGI (NCI-H226 lung): > 100 µM

With `COc1ccc2[nH]cc(/C=C(/C)c3ccncc3)c2c1` as the molecule, how does the TGI (CCRF-CEM leukemia) read?
The TGI was over 100 µM.

And the GI50 (MCF7 breast)?
The GI50 was 0.996 µM.

What about the TGI (MCF7 breast) of the same molecule?
The TGI was over 100 µM.

What about the GI50 (SNB-78 CNS) of the same molecule?
Its GI50 is 9.43 µM.

And the TGI (SNB-78 CNS)?
Its TGI is over 100 µM.

And the GI50 (OVCAR-4 ovarian)?
The GI50 was 17.9 µM.

And the TGI (OVCAR-4 ovarian)?
The TGI was over 100 µM.

And the GI50 (SK-MEL-2 melanoma)?
The GI50 was 58.1 µM.

What about the TGI (SK-MEL-2 melanoma) of the same molecule?
The TGI was > 100 µM and 55.9 µM.

And the GI50 (U251 CNS)?
The GI50 was 3.24 µM.

And the TGI (U251 CNS)?
The TGI was 11 µM and 67.9 µM.

What about the GI50 (NCI-H226 lung) of the same molecule?
The GI50 was 7.63 µM.

And the TGI (NCI-H226 lung)?
The TGI was 38.6 µM and > 100 µM.

And the GI50 (SN12K1 renal)?
Its GI50 is 5.6 µM.

What about the TGI (SN12K1 renal) of the same molecule?
Its TGI is 27.6 µM and > 100 µM.

For `Cc1ccc(-c2cc(-c3ccco3)c(C#N)c(=S)n2C2OC(CO)C(O)C(O)C2O)cc1` (configuration not stated), which GI50 (CCRF-CEM leukemia) is on record?
Its GI50 is 23.2 µM.

What about the TGI (CCRF-CEM leukemia) of the same molecule?
Its TGI is 99.1 µM.

And the TGI (MCF7 breast)?
Its TGI is over 100 µM.

What about the TGI (TK-10 renal) of the same molecule?
Its TGI is over 100 µM.

What about the GI50 (OVCAR-4 ovarian) of the same molecule?
Its GI50 is 14.5 µM and > 100 µM.

And the TGI (OVCAR-4 ovarian)?
The TGI was 53.6 µM and > 100 µM.

What about the GI50 (HS 578T breast) of the same molecule?
Its GI50 is 14.8 µM and 33.2 µM.

And the TGI (HS 578T breast)?
The TGI was over 100 µM.

And the GI50 (SK-MEL-2 melanoma)?
The GI50 was 39.3 µM and > 100 µM.

And the TGI (SK-MEL-2 melanoma)?
The TGI was over 100 µM.

What about the GI50 (U251 CNS) of the same molecule?
Its GI50 is 16.6 µM and 36.5 µM.

And the TGI (U251 CNS)?
The TGI was 35.6 µM and > 100 µM.

What about the GI50 (NCI-H226 lung) of the same molecule?
Its GI50 is 13.4 µM and 32.4 µM.

And the TGI (NCI-H226 lung)?
Its TGI is 53.9 µM and > 100 µM.

Which TGI (CCRF-CEM leukemia) does the source give for `C/C(=C\CBr)CCC(Br)C(C)(C)Br` (configuration not stated) here?
The TGI was over 100 µM.

And the TGI (MCF7 breast)?
The TGI was over 100 µM.

What about the TGI (TK-10 renal) of the same molecule?
Its TGI is over 100 µM.

What about the TGI (OVCAR-4 ovarian) of the same molecule?
Its TGI is over 100 µM.

And the TGI (HS 578T breast)?
The TGI was over 100 µM.

And the TGI (SK-MEL-2 melanoma)?
Its TGI is over 100 µM.

And the TGI (U251 CNS)?
Its TGI is over 100 µM.

What about the TGI (NCI-H226 lung) of the same molecule?
The TGI was over 100 µM.
